Nine molecules from patent publication EP4786487A1, “PEPTIDE” (Peptidream Inc, priority 2023, dated 2025) can be followed below.

Test [1] concerns the target T1, Myostatin (Homo sapiens, UniProt O14793).
T1 construct: active myostatin (also called mature myostatin) is a homodimer consisting of two C-terminal growth factor domains; purchased R&D systems 788-G8/CF
T1 sequence (O14793 267-375): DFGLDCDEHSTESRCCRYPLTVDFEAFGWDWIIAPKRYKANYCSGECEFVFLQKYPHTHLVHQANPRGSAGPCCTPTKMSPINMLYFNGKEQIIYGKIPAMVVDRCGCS
The experiment in a line: HepG2 reporter gene assay, Evaluation Procedure (2): 2-concentrations assay, myostatin inhibition. The conditions noted are these: Myostatin 10 ng/mL, HepG2; for inhibition at 0.03 µM: peptide 30nM, read-out: Myostatin Inhibition 30nM; for inhibition at 0.1 µM: peptide 100nM, read-out: Myostatin Inhibition 100nM. In kind it is cell-based. An outline of the steps: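 HepG2 cells (HB-8065, ATCC) carrying the transfected pGL3(CAGA)12-luc reporter plasmid were treated with myostatin (788-G8/CF, R&D systems) at a final concentration of 10 ng/mL plus peptide and incubated at 37°C, 5% CO2 for 20 to 24 hours. Luminescence was read after adding PBS mixed 1:1 with One-Glo substrate, and inhibition rate was calculated.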
Background: In a reporter assay the amount or activity of a reporter protein is the signal.

Test [2] concerns the target T2, GDF-11 (Homo sapiens, UniProt O95390).
T2 construct: purchased R&D systems 1958-GD-G8/CF
T2 sequence (O95390 299-407): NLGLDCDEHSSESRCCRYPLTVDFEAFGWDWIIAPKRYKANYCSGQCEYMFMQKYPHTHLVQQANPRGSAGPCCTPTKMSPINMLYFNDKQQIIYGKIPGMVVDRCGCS
Briefly: HepG2 reporter gene assay, Evaluation Procedure (2): 2-concentrations assay, GDF-11 inhibition. Format: cell-based. The conditions noted are these: GDF-11 10 ng/mL; for inhibition at 0.03 µM: HepG2, peptide 30nM, read-out: GDF11 Inhibition 30nM; for inhibition at 0.1 µM: HepG2, peptide 100nM, read-out: GDF11 Inhibition 100nM. An outline of the steps:
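HepG2 cells carrying the transfected pGL3(CAGA)12-luc reporter, a pGL3 vector with luciferase placed downstream of 12 CAGA repeats, were stimulated with GDF-11 at a final 10 ng/mL together with test peptide. Blank wells received no GDF-11 and no peptide. Plates were incubated 20 to 24 hours at 37°C with 5% CO2. Luminescence from One-Glo substrate was read to calculate percent inhibition.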

The structures appear in SMILES notation. Positions of bridges follow the written chain, without caps; N, C: chain ends. Non-standard residues stand in square brackets, D forms with d. Residues, ends and D or L forms follow the SMILES beside them. Phe(4-COOH) = N[C@@H](Cc1ccc(C(=O)O)cc1)C(=O)O; Trp(7-aza) = N[C@@H](Cc1c[nH]c2ncccc12)C(=O)O; 3Pal(6-NH2) = Nc1ccc(C[C@H](N)C(=O)O)cn1; Gly(N(CH2)3COOH) = O=C(O)CCCNCC(=O)O; NMeF = CN[C@@H](Cc1ccccc1)C(=O)O; 3Pal = N[C@@H](Cc1cccnc1)C(=O)O; 4Pal = N[C@@H](Cc1ccncc1)C(=O)O; NMeA = CN[C@@H](C)C(=O)O; Sar = CNCC(=O)O

The inhibition is the percentage by which the read-out fell short of the control. On to `CC[C@H](C)[C@@H]1NC(=O)[C@H](Cc2ccccc2)N(C)C(=O)[C@H](Cc2ccc(N)nc2)NC(=O)[C@H](Cc2c[nH]c3ccccc23)NC(=O)[C@H](C)NC(=O)CN(CCCC(=O)O)C(=O)CSC[C@H](C(N)=O)NC(=O)[C@H](Cc2ccccc2)N(C)C(=O)[C@H](C)N(C)C(=O)[C@H](CC(C)C)NC(=O)[C@H](Cc2ccccc2)N(C)C(=O)[C@H](CCCNC(=N)N)NC(=O)[C@H](Cc2ccc(C(=O)O)cc2)NC(=O)[C@H](Cc2ccncc2)NC(=O)CN(C)C1=O` [Myostatin_99_Variant_25] ({CH2CO}-[Gly(N(CH2)3COOH)]AW[3Pal(6-NH2)][NMeF]I[Sar][4Pal][Phe(4-COOH)]R[NMeF]L[NMeA][NMeF][dC]-NH2; thioether N-15), for which, in test [1], the inhibition at 0.03 µM is 20% and the inhibition at 0.1 µM is 50%. In addition, in test [2], the inhibition at 0.03 µM was 0% and the inhibition at 0.1 µM is 0%.

`CC[C@H](C)[C@@H]1NC(=O)[C@H](Cc2ccccc2)N(C)C(=O)[C@H](Cc2ccc(N)nc2)NC(=O)[C@H](Cc2c[nH]c3ccccc23)NC(=O)[C@H](C)NC(=O)CN(CCCC(=O)O)C(=O)CSC[C@H](C(N)=O)NC(=O)[C@H](Cc2ccccc2)N(C)C(=O)[C@H](C)N(C)C(=O)[C@H](CC(C)C)NC(=O)[C@H](Cc2ccccc2)N(C)C(=O)[C@H](CCCNC(=N)N)NC(=O)[C@H](Cc2cccnc2)NC(=O)[C@H](Cc2ccccc2)NC(=O)CN(C)C1=O` [Myostatin_99_Variant_26] ({CH2CO}-[Gly(N(CH2)3COOH)]AW[3Pal(6-NH2)][NMeF]I[Sar]F[3Pal]R[NMeF]L[NMeA][NMeF][dC]-NH2; thioether N-15): in test [1], the inhibition at 0.03 µM was 26% and the inhibition at 0.1 µM is 50%. In test [2], the inhibition at 0.03 µM came out at 0% and the inhibition at 0.1 µM came to 0%.

Take `CC[C@H](C)[C@@H]1NC(=O)[C@H](Cc2ccccc2)N(C)C(=O)[C@H](Cc2ccc(O)cc2)NC(=O)[C@H](Cc2c[nH]c3ccccc23)NC(=O)[C@H](C)NC(=O)CN(CCCC(=O)O)C(=O)CSC[C@H](C(=O)NCC(=O)N[C@H](CCC(=O)O)C(=O)NCC(=O)N[C@H](CCCCN)C(=O)O)NC(=O)[C@H](Cc2ccccc2)N(C)C(=O)[C@H](C)N(C)C(=O)[C@H](CC(C)C)NC(=O)[C@H](Cc2ccccc2)N(C)C(=O)[C@H](CCCNC(=N)N)NC(=O)[C@H](Cc2ccc(C(=O)O)cc2)NC(=O)[C@H](Cc2ccc(O)cc2)NC(=O)CN(C)C1=O` [Myostatin_99_v27] ({CH2CO}-[Gly(N(CH2)3COOH)]AWY[NMeF]I[Sar]Y[Phe(4-COOH)]R[NMeF]L[NMeA][NMeF][dC]G[dE]G[dK]-OH; thioether N-15): in test [1], the inhibition at 0.03 µM is 24% and the inhibition at 0.1 µM came to 54%. In test [2], the inhibition at 0.03 µM stood at 0% and the inhibition at 0.1 µM worked out at 0%.

For `CC[C@H](C)[C@@H]1NC(=O)[C@H](Cc2ccccc2)N(C)C(=O)[C@H](Cc2ccc(O)cc2)NC(=O)[C@H](Cc2c[nH]c3ncccc23)NC(=O)[C@H](C)NC(=O)[C@H](C)NC(=O)CSC[C@H](C(=O)NCC(=O)N[C@H](CCC(=O)O)C(=O)NCC(=O)N[C@H](CCCCN)C(=O)O)NC(=O)[C@H](Cc2ccccc2)N(C)C(=O)[C@H](C)N(C)C(=O)[C@H](CC(C)C)NC(=O)[C@H](Cc2ccccc2)N(C)C(=O)[C@H](CCCNC(=N)N)NC(=O)[C@H](Cc2ccc(C(=O)O)cc2)NC(=O)[C@H](Cc2ccccc2)NC(=O)CN(C)C1=O` [Myostatin_99_v28] ({CH2CO}-AA[Trp(7-aza)]Y[NMeF]I[Sar]F[Phe(4-COOH)]R[NMeF]L[NMeA][NMeF][dC]G[dE]G[dK]-OH; thioether N-15), the values for the inhibition at 0.03 µM in test [1] and in test [2] were 69% and 0%, respectively. Besides, the values for the inhibition at 0.1 µM in test [1] and in test [2] were 92% and 20%, respectively.

In the case of `CC[C@H](C)[C@@H]1NC(=O)[C@H](Cc2ccccc2)N(C)C(=O)[C@H](Cc2ccc(O)cc2)NC(=O)[C@H](Cc2c[nH]c3ncccc23)NC(=O)[C@H](C)NC(=O)[C@H](C)NC(=O)CSC[C@H](C(=O)NCC(=O)N[C@H](CCC(=O)O)C(=O)NCC(=O)N[C@H](CCCCN)C(=O)O)NC(=O)[C@H](Cc2ccccc2)N(C)C(=O)[C@H](C)N(C)C(=O)[C@H](CC(C)C)NC(=O)[C@H](Cc2ccccc2)N(C)C(=O)[C@H](CCCNC(=N)N)NC(=O)[C@H](Cc2ccc(C(=O)O)cc2)NC(=O)[C@H](Cc2ccncc2)NC(=O)CN(C)C1=O` [Myostatin_99_v29] ({CH2CO}-AA[Trp(7-aza)]Y[NMeF]I[Sar][4Pal][Phe(4-COOH)]R[NMeF]L[NMeA][NMeF][dC]G[dE]G[dK]-OH; thioether N-15), in test [1], the inhibition at 0.03 µM turned out to be 57% and the inhibition at 0.1 µM is 81%. Further, in test [2], the inhibition at 0.03 µM is 0% and the inhibition at 0.1 µM amounted to 0%.

In the case of `CC[C@H](C)[C@@H]1NC(=O)[C@H](Cc2ccccc2)N(C)C(=O)[C@H](Cc2ccc(O)cc2)NC(=O)[C@H](Cc2c[nH]c3ncccc23)NC(=O)[C@H](C)NC(=O)CN(CCCC(=O)O)C(=O)CSC[C@H](C(=O)NCC(=O)N[C@H](CCC(=O)O)C(=O)NCC(=O)N[C@H](CCCCN)C(=O)O)NC(=O)[C@H](Cc2ccccc2)N(C)C(=O)[C@H](C)N(C)C(=O)[C@H](CC(C)C)NC(=O)[C@H](Cc2ccccc2)N(C)C(=O)[C@H](CCCNC(=N)N)NC(=O)[C@H](Cc2ccc(C(=O)O)cc2)NC(=O)[C@H](Cc2ccccc2)NC(=O)CN(C)C1=O` [Myostatin_99_v30] ({CH2CO}-[Gly(N(CH2)3COOH)]A[Trp(7-aza)]Y[NMeF]I[Sar]F[Phe(4-COOH)]R[NMeF]L[NMeA][NMeF][dC]G[dE]G[dK]-OH; thioether N-15), in test [1], the inhibition at 0.03 µM turned out to be 31% and the inhibition at 0.1 µM came to 60%. In test [2], the inhibition at 0.03 µM amounted to 0% and the inhibition at 0.1 µM is 0%.

Regarding `CC[C@H](C)[C@@H]1NC(=O)[C@H](Cc2ccccc2)N(C)C(=O)[C@H](Cc2ccc(O)cc2)NC(=O)[C@H](Cc2c[nH]c3ccccc23)NC(=O)[C@H](C)NC(=O)CN(CCCC(=O)O)C(=O)CSC[C@H](C(=O)N[C@H](CO)C(=O)N[C@H](CO)C(=O)N[C@H](CO)C(=O)N[C@H](CCCCN)C(=O)O)NC(=O)[C@H](Cc2ccccc2)N(C)C(=O)[C@H](C)N(C)C(=O)[C@H](CC(C)C)NC(=O)[C@H](Cc2ccccc2)N(C)C(=O)[C@H](CCCNC(=N)N)NC(=O)[C@H](Cc2ccc(C(=O)O)cc2)NC(=O)[C@H](Cc2ccc(O)cc2)NC(=O)CN(C)C1=O` [Myostatin_99_v34] ({CH2CO}-[Gly(N(CH2)3COOH)]AWY[NMeF]I[Sar]Y[Phe(4-COOH)]R[NMeF]L[NMeA][NMeF][dC][dS][dS][dS][dK]-OH; thioether N-15), in test [1], the inhibition at 0.03 µM was 65% and the inhibition at 0.1 µM was determined as 89%. Besides, in test [2], the inhibition at 0.03 µM was determined as 0% and the inhibition at 0.1 µM was 32%.

In the case of `CC[C@H](C)[C@@H]1NC(=O)[C@H](Cc2ccccc2)N(C)C(=O)[C@H](Cc2ccc(O)cc2)NC(=O)[C@H](Cc2c[nH]c3ncccc23)NC(=O)[C@H](C)NC(=O)[C@H](C)NC(=O)CSC[C@H](C(=O)N[C@H](CO)C(=O)N[C@H](CO)C(=O)N[C@H](CO)C(=O)N[C@H](CCCCN)C(=O)O)NC(=O)[C@H](Cc2ccccc2)N(C)C(=O)[C@H](C)N(C)C(=O)[C@H](CC(C)C)NC(=O)[C@H](Cc2ccccc2)N(C)C(=O)[C@H](CCCNC(=N)N)NC(=O)[C@H](Cc2ccc(C(=O)O)cc2)NC(=O)[C@H](Cc2ccccc2)NC(=O)CN(C)C1=O` [Myostatin_99_v35] ({CH2CO}-AA[Trp(7-aza)]Y[NMeF]I[Sar]F[Phe(4-COOH)]R[NMeF]L[NMeA][NMeF][dC][dS][dS][dS][dK]-OH; thioether N-15), the inhibition at 0.03 µM in test [1] was 95%; in test [2] it was 13%. Moreover, the inhibition at 0.1 µM in test [1] stood at 100%; in test [2], 36%.

`CC[C@H](C)[C@@H]1NC(=O)[C@H](Cc2ccccc2)N(C)C(=O)[C@H](Cc2ccc(O)cc2)NC(=O)[C@H](Cc2c[nH]c3ncccc23)NC(=O)[C@H](C)NC(=O)[C@H](C)NC(=O)CSC[C@H](C(=O)N[C@H](CO)C(=O)N[C@H](CO)C(=O)N[C@H](CO)C(=O)N[C@H](CCCCN)C(=O)O)NC(=O)[C@H](Cc2ccccc2)N(C)C(=O)[C@H](C)N(C)C(=O)[C@H](CC(C)C)NC(=O)[C@H](Cc2ccccc2)N(C)C(=O)[C@H](CCCNC(=N)N)NC(=O)[C@H](Cc2ccc(C(=O)O)cc2)NC(=O)[C@H](Cc2ccncc2)NC(=O)CN(C)C1=O` [Myostatin_99_v36] ({CH2CO}-AA[Trp(7-aza)]Y[NMeF]I[Sar][4Pal][Phe(4-COOH)]R[NMeF]L[NMeA][NMeF][dC][dS][dS][dS][dK]-OH; thioether N-15): in test [1], the inhibition at 0.03 µM was found to be 92% and the inhibition at 0.1 µM came to 98%. Besides, in test [2], the inhibition at 0.03 µM was 2% and the inhibition at 0.1 µM was 18%.
